According to paper PMC10938783, “A novel pan-PI3K inhibitor KTC1101 synergizes with anti-PD-1 therapy by targeting tumor suppression and immune activation” (Molecular Cancer, 2024):

Experiment: Liver microsome metabolic stability assay
Conditions: mouse, microsomes

**Q.** What does the source list for `Cc1ncc2n1-c1ccc(Cl)cc1C(c1ccccc1F)=NC2` [Midazolam, reference compound]?
**A.** half-life at 1 µM: 1.24 min; microsomal CLint at 1 µM: 1120 µL/min/mg
